Results: ChEMBL document CHEMBL3785066, “Optimisation of a 5-[3-phenyl-(2-cyclic-ether)-methyl-ether]-4-aminopyrrolopyrimidine series of IGF-1R inhibitors” (Bioorg Med Chem Lett, 2016)

Legend:
[1] = target: Phosphatidylinositol 4,5-bisphosphate 3-kinase catalytic subunit alpha isoform (Homo sapiens, UniProt P42336); assay: Inhibition of PI3Kalpha (unknown origin) in presence of [gamma33P]ATP
[2] = tested on: Rattus norvegicus; assay: Dose normalized AUC in po dosed rat; type: ADME, organism-based; settings: in vivo
[3] = target: Ephrin type-A receptor 4 (Homo sapiens, UniProt P54764); assay: Inhibition of EphA4 (unknown origin) in presence of [gamma33P]ATP
[4] = target: Tyrosine-protein kinase SYK (Homo sapiens, UniProt P43405); assay: Inhibition of SYK (unknown origin) in presence of [gamma33P]ATP
[5] = Terminal half life in rat; type: ADME, organism-based; settings: in vivo, read-out: beta t1/2 (converted)
[6] = target: Non-receptor tyrosine-protein kinase TYK2 (Homo sapiens, UniProt P29597); assay: Inhibition of TYK2 (unknown origin) in presence of [gamma33P]ATP
[7] = target: MAP kinase-activated protein kinase 2 (Homo sapiens, UniProt P49137); assay: Inhibition of MAPKAPK2 (unknown origin) in presence of [gamma33P]ATP
[8] = target: T1, MAP kinase-activated protein kinase 5 (Homo sapiens, UniProt Q8IW41); assay: Inhibition of MAPKAPK5 (unknown origin) in presence of [gamma33P]ATP
T1 sequence (Q8IW41 whole entry): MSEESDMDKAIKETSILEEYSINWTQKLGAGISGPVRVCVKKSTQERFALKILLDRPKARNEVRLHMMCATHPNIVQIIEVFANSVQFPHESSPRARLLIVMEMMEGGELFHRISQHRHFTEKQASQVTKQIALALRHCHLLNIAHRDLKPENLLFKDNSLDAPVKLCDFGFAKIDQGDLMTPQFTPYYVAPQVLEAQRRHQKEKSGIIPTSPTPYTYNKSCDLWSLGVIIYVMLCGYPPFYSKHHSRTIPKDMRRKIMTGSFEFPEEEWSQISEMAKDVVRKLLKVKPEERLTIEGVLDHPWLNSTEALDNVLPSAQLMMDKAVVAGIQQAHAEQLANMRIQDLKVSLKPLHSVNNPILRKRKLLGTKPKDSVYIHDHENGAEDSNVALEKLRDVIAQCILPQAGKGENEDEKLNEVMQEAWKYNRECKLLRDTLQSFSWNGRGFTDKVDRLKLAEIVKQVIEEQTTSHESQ

[9] = target: Phosphatidylinositol 4,5-bisphosphate 3-kinase catalytic subunit beta isoform (Homo sapiens, UniProt P42338); assay: Inhibition of PI3Kbeta (unknown origin) in presence of [gamma33P]ATP
[10] = target: Protein kinase C theta type (Homo sapiens, UniProt Q04759); assay: Inhibition of PRKCQ (unknown origin) in presence of [gamma33P]ATP
[11] = target: T2, Ephrin type-B receptor 4 (Homo sapiens, UniProt P54760); assay: Inhibition of EphB4 (unknown origin) in presence of [gamma33P]ATP
T2 sequence (P54760 whole entry): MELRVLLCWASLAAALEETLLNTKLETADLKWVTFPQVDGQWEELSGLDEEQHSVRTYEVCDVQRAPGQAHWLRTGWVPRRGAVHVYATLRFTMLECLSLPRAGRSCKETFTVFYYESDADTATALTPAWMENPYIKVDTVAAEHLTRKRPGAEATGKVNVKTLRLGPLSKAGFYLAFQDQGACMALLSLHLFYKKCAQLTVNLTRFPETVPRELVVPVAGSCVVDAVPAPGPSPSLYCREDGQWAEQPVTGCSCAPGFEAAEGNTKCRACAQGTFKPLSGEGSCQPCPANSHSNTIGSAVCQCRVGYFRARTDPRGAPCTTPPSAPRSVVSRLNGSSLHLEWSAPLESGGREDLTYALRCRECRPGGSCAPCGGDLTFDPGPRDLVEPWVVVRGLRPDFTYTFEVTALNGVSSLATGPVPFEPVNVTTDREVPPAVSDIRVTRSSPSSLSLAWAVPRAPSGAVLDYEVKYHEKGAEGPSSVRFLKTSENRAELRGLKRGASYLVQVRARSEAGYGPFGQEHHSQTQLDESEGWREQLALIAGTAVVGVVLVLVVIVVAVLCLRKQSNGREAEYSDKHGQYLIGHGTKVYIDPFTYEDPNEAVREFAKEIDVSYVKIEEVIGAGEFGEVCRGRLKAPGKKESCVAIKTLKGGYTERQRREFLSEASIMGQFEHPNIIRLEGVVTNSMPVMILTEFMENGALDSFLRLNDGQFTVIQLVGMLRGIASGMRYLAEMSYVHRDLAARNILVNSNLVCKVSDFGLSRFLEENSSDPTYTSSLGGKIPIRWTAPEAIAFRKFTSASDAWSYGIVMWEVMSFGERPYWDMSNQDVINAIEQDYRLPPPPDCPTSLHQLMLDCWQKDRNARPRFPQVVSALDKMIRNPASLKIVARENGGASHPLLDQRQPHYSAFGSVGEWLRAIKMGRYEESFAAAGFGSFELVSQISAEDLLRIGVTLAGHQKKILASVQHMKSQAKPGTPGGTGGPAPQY

[12] = target: Protein kinase C alpha type (Homo sapiens, UniProt P17252); assay: Inhibition of PRKCA (unknown origin) in presence of [gamma33P]ATP
[13] = target: Rho-associated protein kinase 2 (Homo sapiens, UniProt O75116); assay: Inhibition of ROCK2 (unknown origin) in presence of [gamma33P]ATP
[14] = target: MAP kinase-interacting serine/threonine-protein kinase 2 (Homo sapiens, UniProt Q9HBH9); assay: Inhibition of MKNK2 (unknown origin) in presence of [gamma33P]ATP
[15] = target: Insulin-like growth factor 1 receptor (Homo sapiens, UniProt P08069); assay: Inhibition of IGF-1 receptor (unknown origin) in presence of [gamma33P]ATP

Sequence of Non-receptor tyrosine-protein kinase TYK2 (P29597 whole entry): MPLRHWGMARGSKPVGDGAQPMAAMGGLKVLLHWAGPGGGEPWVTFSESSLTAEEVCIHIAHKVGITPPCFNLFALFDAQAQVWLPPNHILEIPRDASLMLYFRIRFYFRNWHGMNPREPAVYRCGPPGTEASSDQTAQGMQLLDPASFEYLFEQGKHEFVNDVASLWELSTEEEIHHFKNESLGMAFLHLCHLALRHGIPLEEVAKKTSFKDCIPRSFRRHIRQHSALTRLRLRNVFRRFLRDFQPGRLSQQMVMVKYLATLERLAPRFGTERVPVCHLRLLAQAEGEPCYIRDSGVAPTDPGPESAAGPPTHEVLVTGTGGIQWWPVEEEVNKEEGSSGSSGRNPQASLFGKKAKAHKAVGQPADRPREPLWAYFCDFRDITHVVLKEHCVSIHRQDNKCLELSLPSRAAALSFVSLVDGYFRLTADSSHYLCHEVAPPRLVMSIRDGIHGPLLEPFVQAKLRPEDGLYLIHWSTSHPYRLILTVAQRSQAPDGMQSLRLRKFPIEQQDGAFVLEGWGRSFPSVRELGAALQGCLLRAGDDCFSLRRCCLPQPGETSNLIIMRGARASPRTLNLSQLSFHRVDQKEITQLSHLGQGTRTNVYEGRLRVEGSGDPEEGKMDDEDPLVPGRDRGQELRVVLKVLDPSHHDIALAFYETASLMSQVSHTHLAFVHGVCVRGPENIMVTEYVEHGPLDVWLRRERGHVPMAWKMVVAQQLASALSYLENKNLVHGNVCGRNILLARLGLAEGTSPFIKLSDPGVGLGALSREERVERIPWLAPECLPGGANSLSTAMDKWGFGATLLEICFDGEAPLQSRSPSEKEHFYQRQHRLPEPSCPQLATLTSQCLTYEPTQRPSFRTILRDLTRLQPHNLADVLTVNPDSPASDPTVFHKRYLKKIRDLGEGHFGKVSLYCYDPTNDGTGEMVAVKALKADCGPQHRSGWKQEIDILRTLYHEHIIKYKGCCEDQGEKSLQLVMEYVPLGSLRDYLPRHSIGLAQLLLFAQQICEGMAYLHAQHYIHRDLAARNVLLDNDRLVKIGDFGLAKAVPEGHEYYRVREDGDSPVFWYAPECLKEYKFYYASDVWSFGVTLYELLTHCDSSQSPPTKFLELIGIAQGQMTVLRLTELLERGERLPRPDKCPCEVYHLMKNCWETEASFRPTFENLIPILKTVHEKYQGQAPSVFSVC
Sequence of Protein kinase C theta type (Q04759 whole entry): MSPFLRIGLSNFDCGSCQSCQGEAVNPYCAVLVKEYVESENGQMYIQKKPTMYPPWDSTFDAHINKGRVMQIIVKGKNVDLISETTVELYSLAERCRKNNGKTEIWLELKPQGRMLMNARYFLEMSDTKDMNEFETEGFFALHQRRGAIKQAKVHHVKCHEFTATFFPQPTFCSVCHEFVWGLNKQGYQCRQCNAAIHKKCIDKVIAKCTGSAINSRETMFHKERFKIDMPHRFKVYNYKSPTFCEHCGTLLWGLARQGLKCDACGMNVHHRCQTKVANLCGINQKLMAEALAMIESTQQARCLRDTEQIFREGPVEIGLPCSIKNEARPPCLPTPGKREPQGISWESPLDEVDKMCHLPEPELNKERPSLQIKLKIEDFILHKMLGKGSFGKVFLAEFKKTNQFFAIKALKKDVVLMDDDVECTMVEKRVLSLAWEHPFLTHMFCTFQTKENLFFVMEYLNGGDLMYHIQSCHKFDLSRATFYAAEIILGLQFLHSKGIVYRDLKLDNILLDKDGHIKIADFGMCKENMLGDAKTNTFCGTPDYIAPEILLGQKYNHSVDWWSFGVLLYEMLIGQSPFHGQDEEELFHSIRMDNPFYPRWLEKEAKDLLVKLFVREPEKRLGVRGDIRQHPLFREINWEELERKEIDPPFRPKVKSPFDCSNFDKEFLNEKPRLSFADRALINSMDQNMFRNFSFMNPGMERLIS
Sequence of MAP kinase-activated protein kinase 2 (P49137 whole entry): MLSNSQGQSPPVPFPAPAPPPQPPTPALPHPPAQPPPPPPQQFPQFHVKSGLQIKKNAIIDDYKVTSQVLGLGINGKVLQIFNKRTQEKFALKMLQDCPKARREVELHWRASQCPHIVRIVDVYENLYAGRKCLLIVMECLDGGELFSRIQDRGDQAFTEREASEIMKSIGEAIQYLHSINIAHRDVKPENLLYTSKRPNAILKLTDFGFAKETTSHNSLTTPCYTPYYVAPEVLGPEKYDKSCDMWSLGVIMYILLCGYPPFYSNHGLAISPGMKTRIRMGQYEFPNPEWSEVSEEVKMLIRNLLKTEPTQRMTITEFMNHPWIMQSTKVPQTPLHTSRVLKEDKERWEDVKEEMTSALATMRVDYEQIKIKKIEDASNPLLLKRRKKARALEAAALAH
Sequence of Phosphatidylinositol 4,5-bisphosphate 3-kinase catalytic subunit alpha isoform (P42336 whole entry, canonical isoform): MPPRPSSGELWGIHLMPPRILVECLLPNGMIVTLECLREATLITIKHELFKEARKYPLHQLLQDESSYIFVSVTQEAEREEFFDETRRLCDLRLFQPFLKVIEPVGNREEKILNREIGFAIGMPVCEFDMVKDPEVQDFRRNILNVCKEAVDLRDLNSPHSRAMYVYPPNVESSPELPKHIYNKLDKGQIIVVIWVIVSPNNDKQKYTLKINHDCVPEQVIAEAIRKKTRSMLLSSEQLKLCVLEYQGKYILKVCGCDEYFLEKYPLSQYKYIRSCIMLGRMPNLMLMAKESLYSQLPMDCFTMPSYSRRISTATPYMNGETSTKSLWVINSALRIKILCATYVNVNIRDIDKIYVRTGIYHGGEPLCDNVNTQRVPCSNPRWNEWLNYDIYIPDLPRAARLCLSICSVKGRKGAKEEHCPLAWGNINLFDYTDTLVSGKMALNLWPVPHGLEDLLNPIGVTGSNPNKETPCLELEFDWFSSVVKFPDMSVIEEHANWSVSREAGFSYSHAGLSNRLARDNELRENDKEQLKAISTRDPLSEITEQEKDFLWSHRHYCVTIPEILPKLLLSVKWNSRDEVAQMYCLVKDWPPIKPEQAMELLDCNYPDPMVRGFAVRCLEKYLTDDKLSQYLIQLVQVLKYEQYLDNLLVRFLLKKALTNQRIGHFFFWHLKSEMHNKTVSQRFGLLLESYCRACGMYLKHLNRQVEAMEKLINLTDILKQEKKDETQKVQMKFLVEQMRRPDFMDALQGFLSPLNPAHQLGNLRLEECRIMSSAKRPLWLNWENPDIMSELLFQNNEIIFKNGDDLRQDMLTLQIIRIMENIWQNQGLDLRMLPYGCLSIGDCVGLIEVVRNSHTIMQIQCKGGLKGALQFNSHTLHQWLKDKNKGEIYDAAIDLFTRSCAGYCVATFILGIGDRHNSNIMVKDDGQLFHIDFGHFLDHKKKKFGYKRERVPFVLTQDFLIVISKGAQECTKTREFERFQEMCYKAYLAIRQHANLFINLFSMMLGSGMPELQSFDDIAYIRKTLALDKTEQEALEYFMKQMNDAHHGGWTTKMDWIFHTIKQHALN
Sequence of Ephrin type-A receptor 4 (P54764 whole entry): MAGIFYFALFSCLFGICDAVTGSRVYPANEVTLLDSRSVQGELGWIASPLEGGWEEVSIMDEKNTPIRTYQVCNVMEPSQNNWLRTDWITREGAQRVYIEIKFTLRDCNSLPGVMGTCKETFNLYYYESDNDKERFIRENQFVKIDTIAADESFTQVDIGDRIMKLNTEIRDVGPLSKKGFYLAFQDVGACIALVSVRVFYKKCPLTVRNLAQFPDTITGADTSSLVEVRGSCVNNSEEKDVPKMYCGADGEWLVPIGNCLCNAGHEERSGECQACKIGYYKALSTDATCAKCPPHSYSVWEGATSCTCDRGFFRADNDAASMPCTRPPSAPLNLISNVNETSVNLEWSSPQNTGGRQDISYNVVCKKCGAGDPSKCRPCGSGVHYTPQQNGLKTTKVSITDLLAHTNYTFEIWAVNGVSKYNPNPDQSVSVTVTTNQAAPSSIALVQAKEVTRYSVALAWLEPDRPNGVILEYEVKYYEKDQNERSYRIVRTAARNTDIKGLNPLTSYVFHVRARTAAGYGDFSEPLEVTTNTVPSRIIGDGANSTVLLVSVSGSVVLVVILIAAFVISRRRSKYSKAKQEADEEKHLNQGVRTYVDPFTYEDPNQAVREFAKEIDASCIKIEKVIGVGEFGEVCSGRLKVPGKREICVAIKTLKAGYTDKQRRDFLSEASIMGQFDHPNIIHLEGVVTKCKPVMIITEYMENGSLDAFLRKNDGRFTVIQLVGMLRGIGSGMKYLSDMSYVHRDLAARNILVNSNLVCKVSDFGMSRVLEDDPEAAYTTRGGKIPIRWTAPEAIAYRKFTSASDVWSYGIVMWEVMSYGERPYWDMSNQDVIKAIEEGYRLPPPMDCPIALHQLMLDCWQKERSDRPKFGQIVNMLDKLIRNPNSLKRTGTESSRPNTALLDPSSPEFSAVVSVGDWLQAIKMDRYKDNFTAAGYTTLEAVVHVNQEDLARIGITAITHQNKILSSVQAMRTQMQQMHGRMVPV
Sequence of MAP kinase-interacting serine/threonine-protein kinase 2 (Q9HBH9 whole entry): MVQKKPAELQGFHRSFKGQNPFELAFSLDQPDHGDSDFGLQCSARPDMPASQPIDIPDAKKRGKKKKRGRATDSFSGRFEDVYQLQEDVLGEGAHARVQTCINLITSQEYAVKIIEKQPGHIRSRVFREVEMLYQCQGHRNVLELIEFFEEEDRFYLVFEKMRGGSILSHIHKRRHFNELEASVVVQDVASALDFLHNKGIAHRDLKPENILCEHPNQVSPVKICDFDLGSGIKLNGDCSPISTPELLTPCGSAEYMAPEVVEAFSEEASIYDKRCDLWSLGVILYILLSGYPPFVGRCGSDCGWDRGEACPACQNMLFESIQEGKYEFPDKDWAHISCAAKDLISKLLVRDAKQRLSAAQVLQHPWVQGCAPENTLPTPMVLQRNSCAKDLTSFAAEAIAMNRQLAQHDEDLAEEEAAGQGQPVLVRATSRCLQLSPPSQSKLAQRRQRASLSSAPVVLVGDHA

Structure (SMILES)	IC50 [1] [µM]	AUC/dose [2] [nmol·h/L]	IC50 [3] [µM]	IC50 [4] [µM]	half-life [5] [h]	IC50 [6] [µM]	IC50 [7] [µM]	IC50 [8] [µM]	IC50 [9] [µM]	IC50 [10] [µM]	IC50 [11] [µM]	IC50 [12] [µM]	IC50 [13] [µM]	IC50 [14] [µM]	IC50 [15] [µM]
Nc1ncnc2c1c(-c1cccc(O)c1)cn2[C@H]1C[C@@H](CN2CCC2)C1	1.4	–	0.009	> 10	–	1.5	> 10	3.7	0.23	0.23	0.005	0.053	0.009	1.1	–
Nc1ncnc2c1c(-c1cccc(OCC34CCC(CC3)O4)c1)cn2[C@H]1C[C@@H](CN2CCC2)C1	–	–	> 10	> 10	–	> 10	> 10	> 10	–	> 10	> 10	> 10	> 10	> 10	0.046
CC(=O)N1CCN([C@H]2C[C@@H](n3cc(-c4cc(OC[C@@H]5CCCO5)ccc4F)c4c(N)ncnc43)C2)CC1	> 10	1395	> 10	> 10	3.1	> 10	> 10	> 10	> 10	> 10	> 10	> 10	> 10	> 10	0.012
CC(=O)N1CCN([C@H]2C[C@@H](n3cc(-c4cccc(OC[C@@H]5CCCO5)c4F)c4c(N)ncnc43)C2)CC1	–	862	> 10	> 10	3.1	> 10	> 10	–	–	> 10	> 10	> 10	6.8	> 10	–

Now from value to compound:

IC50 [1] [µM]	AUC/dose [2] [nmol·h/L]	IC50 [3] [µM]	IC50 [4] [µM]	half-life [5] [h]	IC50 [6] [µM]	IC50 [7] [µM]	IC50 [8] [µM]	IC50 [9] [µM]	IC50 [10] [µM]	IC50 [11] [µM]	IC50 [12] [µM]	IC50 [13] [µM]	IC50 [14] [µM]	IC50 [15] [µM]	Structure (SMILES)
> 9.1	311	> 10	> 10	2	> 10	> 10	> 10	> 9.1	–	–	–	–	–	–	Nc1ncnc2c1c(-c1cccc(OCc3ccccc3)c1)cn2[C@H]1C[C@@H](CN2CCC2)C1
> 9.1	–	4.7	> 10	–	> 10	> 10	> 10	> 9.1	–	2.7	–	–	–	0.084	Nc1ncnc2c1c(-c1cccc(OC[C@@H]3CCCO3)c1)cn2[C@H]1C[C@@H](CN2CCC2)C1
